{
  "source": "ChEMBL document CHEMBL3588759",
  "about": "“Structure-based design, synthesis and evaluation in vitro of arylnaphthyridinones, arylpyridopyrimidinones and their tetrahydro derivatives as inhibitors of the tankyrases” (Bioorg Med Chem, 2015)",
  "key": {"[1]": {"experiment": "Antiproliferative activity against human FEK4 cells"}, "[2]": {"biological_target": "T1, Poly [ADP-ribose] polymerase tankyrase-1 (Homo sapiens, UniProt O95271)", "T1 sequence (O95271 whole entry)": "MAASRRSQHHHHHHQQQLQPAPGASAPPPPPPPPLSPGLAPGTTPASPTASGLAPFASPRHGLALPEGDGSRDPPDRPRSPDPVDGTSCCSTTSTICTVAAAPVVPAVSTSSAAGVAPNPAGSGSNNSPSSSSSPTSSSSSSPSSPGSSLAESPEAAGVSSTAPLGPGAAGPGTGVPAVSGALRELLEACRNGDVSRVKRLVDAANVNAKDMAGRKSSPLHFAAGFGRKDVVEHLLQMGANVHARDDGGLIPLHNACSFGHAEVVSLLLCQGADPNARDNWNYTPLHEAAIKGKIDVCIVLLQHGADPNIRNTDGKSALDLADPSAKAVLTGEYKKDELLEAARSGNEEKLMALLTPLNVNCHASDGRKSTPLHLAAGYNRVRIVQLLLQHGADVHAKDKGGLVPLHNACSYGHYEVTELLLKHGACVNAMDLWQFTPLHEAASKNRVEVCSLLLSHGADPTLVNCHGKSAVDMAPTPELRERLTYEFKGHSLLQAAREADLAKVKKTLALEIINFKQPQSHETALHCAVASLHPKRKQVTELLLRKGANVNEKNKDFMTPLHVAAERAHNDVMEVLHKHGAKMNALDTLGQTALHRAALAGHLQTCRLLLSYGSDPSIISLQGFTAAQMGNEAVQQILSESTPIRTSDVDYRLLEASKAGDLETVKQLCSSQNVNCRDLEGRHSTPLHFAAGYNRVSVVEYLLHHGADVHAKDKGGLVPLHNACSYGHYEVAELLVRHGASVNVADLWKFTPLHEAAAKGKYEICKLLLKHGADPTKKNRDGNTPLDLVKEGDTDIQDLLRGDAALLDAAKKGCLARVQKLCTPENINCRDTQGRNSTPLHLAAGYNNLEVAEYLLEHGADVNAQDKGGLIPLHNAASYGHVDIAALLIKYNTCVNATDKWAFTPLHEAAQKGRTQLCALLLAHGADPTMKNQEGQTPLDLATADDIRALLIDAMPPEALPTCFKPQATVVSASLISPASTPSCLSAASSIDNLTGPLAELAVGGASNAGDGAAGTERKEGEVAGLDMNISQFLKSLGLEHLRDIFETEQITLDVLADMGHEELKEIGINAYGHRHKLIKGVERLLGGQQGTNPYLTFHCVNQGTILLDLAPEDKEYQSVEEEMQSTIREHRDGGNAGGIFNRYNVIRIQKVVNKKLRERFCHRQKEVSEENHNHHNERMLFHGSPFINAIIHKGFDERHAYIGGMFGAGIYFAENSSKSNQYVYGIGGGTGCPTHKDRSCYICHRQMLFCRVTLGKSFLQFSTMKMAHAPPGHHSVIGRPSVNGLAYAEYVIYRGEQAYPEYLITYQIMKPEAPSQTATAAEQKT", "experiment": "Inhibition of human TNKS1 catalytic activity"}, "HT-29": {"test_system": "HT-29", "experiment": "Antiproliferative activity against human HT-29 cells"}, "[3]": {"biological_target": "Poly [ADP-ribose] polymerase 1 (Homo sapiens, UniProt P09874)", "sequence (P09874 whole entry)": "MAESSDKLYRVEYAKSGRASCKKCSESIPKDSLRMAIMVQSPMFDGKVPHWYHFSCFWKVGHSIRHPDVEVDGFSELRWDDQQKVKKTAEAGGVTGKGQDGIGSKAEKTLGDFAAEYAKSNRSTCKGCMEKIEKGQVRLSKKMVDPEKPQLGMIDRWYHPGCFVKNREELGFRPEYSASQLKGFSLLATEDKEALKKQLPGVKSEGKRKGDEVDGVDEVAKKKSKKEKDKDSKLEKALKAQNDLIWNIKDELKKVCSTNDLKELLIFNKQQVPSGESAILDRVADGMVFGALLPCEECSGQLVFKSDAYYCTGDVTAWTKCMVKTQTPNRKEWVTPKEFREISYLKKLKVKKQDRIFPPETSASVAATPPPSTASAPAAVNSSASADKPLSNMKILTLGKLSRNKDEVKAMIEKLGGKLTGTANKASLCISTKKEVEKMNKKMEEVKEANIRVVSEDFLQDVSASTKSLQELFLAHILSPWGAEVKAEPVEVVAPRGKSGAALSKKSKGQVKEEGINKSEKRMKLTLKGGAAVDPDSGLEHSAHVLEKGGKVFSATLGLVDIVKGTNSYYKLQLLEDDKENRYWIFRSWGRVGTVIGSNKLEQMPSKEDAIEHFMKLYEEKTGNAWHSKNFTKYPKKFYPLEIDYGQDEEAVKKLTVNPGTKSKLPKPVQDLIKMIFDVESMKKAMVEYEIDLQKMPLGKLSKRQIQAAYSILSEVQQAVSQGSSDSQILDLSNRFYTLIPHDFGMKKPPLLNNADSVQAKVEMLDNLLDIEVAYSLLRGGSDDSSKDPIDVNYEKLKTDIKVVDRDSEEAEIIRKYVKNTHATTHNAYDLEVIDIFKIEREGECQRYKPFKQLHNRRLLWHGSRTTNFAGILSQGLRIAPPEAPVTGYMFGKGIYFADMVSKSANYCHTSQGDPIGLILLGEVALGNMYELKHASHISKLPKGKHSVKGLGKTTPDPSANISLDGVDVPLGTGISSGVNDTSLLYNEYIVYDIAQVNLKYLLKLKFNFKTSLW", "experiment": "Inhibition of human PARP1"}, "[4]": {"biological_target": "T2, Poly [ADP-ribose] polymerase tankyrase-2 (Homo sapiens, UniProt Q9H2K2)", "T2 sequence (Q9H2K2 whole entry)": "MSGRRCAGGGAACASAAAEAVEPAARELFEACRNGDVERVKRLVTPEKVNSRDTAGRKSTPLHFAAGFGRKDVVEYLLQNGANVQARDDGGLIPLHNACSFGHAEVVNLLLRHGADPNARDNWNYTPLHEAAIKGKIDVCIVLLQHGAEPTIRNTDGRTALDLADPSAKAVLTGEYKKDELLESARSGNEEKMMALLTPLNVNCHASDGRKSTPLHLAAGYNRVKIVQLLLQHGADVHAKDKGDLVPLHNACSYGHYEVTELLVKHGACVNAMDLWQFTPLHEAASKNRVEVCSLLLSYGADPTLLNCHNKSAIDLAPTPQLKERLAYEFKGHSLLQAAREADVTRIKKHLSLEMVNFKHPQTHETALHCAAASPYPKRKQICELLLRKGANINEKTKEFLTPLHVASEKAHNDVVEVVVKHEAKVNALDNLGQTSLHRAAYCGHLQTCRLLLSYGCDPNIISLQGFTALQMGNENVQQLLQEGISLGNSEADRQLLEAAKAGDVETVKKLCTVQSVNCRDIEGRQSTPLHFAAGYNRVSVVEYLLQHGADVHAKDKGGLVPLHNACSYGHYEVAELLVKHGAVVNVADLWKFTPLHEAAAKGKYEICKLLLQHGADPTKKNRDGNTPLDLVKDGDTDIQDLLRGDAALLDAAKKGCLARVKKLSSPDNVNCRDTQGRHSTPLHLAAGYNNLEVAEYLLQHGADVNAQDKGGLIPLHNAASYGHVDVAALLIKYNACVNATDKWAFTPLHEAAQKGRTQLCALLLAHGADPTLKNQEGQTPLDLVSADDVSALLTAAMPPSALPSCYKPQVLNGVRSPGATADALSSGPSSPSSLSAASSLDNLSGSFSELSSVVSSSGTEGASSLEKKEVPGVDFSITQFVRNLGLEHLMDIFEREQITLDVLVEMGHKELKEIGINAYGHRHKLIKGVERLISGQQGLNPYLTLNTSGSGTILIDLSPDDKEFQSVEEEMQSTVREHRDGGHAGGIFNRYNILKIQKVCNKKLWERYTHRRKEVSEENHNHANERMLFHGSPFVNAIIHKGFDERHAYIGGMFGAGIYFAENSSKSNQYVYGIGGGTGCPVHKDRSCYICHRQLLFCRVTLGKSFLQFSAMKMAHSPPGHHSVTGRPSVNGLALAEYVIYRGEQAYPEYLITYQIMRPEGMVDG", "experiment": "Inhibition of human TNKS2 catalytic activity"}},
  "data": [
    {"smiles": "CN1CCCc2c1cc(-c1ccc(C(F)(F)F)cc1)[nH]c2=O", "values": [
      {"measurement": "IC50", "setting": "[1]", "result": "> 200", "unit": "µM"},
      {"measurement": "IC50", "setting": "[2]", "result": 0.0015, "unit": "µM"},
      {"measurement": "IC50", "setting": "HT-29", "result": "> 200", "unit": "µM"}
    ]},
    {"smiles": "O=c1[nH]c(-c2ccccc2)cc2ncccc12", "values": [
      {"measurement": "IC50", "setting": "[1]", "result": "> 500", "unit": "µM"},
      {"measurement": "IC50", "setting": "[2]", "result": 5, "unit": "µM"},
      {"measurement": "IC50", "setting": "HT-29", "result": "> 500", "unit": "µM"}
    ]},
    {"smiles": "CN1CCCc2c1cc(-c1ccccc1)[nH]c2=O", "values": [
      {"measurement": "IC50", "setting": "[1]", "result": "> 500", "unit": "µM"},
      {"measurement": "IC50", "setting": "[2]", "result": 0.097, "unit": "µM"},
      {"measurement": "IC50", "setting": "HT-29", "result": "> 500", "unit": "µM"}
    ]},
    {"smiles": "CN1CCCc2c1cc(-c1ccc(Cl)cc1)[nH]c2=O", "values": [
      {"measurement": "IC50", "setting": "[1]", "result": "> 500", "unit": "µM"},
      {"measurement": "IC50", "setting": "[2]", "result": 0.021, "unit": "µM"},
      {"measurement": "IC50", "setting": "HT-29", "result": 26, "unit": "µM"}
    ]},
    {"smiles": "Cc1ccc(-c2cc3cnccc3c(=O)[nH]2)cc1", "values": [
      {"measurement": "IC50", "setting": "[1]", "result": "> 500", "unit": "µM"},
      {"measurement": "IC50", "setting": "[2]", "result": 6.2, "unit": "µM"},
      {"measurement": "IC50", "setting": "HT-29", "result": 157, "unit": "µM"}
    ]},
    {"smiles": "CN1CCCc2c1cc(-c1ccc(Br)cc1)[nH]c2=O", "values": [
      {"measurement": "IC50", "setting": "[3]", "result": 2, "unit": "µM"},
      {"measurement": "IC50", "setting": "[4]", "result": 0.423, "unit": "µM"},
      {"measurement": "IC50", "setting": "[1]", "result": "> 500", "unit": "µM"},
      {"measurement": "IC50", "setting": "[2]", "result": 0.0061, "unit": "µM"},
      {"measurement": "IC50", "setting": "HT-29", "result": 26, "unit": "µM"}
    ]},
    {"smiles": "COc1ccc(-c2cc3c(c(=O)[nH]2)CCCN3C)cc1", "values": [
      {"measurement": "IC50", "setting": "[1]", "result": "> 200", "unit": "µM"},
      {"measurement": "IC50", "setting": "[2]", "result": 0.0011, "unit": "µM"},
      {"measurement": "IC50", "setting": "HT-29", "result": "> 200", "unit": "µM"}
    ]},
    {"smiles": "O=c1[nH]c(-c2ccccc2)cc2ccncc12", "values": [
      {"measurement": "IC50", "setting": "[1]", "result": "> 500", "unit": "µM"},
      {"measurement": "IC50", "setting": "[2]", "result": 1.3, "unit": "µM"},
      {"measurement": "IC50", "setting": "HT-29", "result": "> 500", "unit": "µM"}
    ]}
  ]
}
